Measured values as given in patent publication US20160009693A1, “HERBICIDAL COMPOUNDS” (SYNGENTA LIMITED, priority 2013, published 2016).

How the values were obtained:
Assay type in all cases: in vivo
Details in all cases: applied at 1000 g/h, evaluated after 13 days
[1] = tested on: Ipomoea hederacea (IPOHE); assay: Herbicidal glasshouse test, post-emergence, IPOHE
Protocol: (§1) Seeds of a variety of test species are sown in standard soil in pots (Alopecurus myosuroides (ALOMY), Setaria faberi (SETFA), Echinochloa crus-galli (ECHCG), Solanum nigrum (SOLNI), Amaranthus retoflexus (AMARE), Ipomoea hederacea (IPOHE)). After cultivation for one day (pre-emergence) or after 8 days cultivation (post-emergence) under controlled conditions in a glasshouse (at 24/16° C., day/night; 14 hours light; 65% humidity), the plants are sprayed with an aqueous spray solution derived from the formulation of the technical active ingredient in acetone / water (50:50) solution containing 0.5% Tween 20 (polyoxyethelyene sorbitan monolaurate, CAS RN 9005-64-5). […] The test plants are then grown in a glasshouse under controlled conditions in a glasshouse (at 24/16° C., day/night; 14 hours light; 65% humidity) and watered twice daily. After 13 days for pre and post-emergence, the test is evaluated for the percentage damage caused to the plant. The biological activities are shown in the following table on a five point scale (5=80-100%; 4=60-79%; 3=40-59%; 2=20-39%; 1=0-19%).

[2] = tested on: Alopecurus myosuroides (ALOMY); assay: Herbicidal glasshouse test, pre-emergence, ALOMY
Protocol: as §1

Solanum nigrum (SOLNI) [3] = assay: Herbicidal glasshouse test, post-emergence, SOLNI
Protocol: as §1

[4] = tested on: Ipomoea hederacea (IPOHE); assay: Herbicidal glasshouse test, pre-emergence, IPOHE
Protocol: as §1

[5] = tested on: Alopecurus myosuroides (ALOMY); assay: Herbicidal glasshouse test, post-emergence, ALOMY
Protocol: as §1

Setaria faberi (SETFA) [6] = assay: Herbicidal glasshouse test, pre-emergence, SETFA
Protocol: as §1

[7] = tested on: Echinochloa crus-galli (ECHCG); assay: Herbicidal glasshouse test, post-emergence, ECHCG
Protocol: as §1

[8] = tested on: Amaranthus retoflexus (AMARE); assay: Herbicidal glasshouse test, post-emergence, AMARE
Protocol: as §1

Setaria faberi (SETFA) [9] = assay: Herbicidal glasshouse test, post-emergence, SETFA
Protocol: as §1

[10] = tested on: Amaranthus retoflexus (AMARE); assay: Herbicidal glasshouse test, pre-emergence, AMARE
Protocol: as §1

Solanum nigrum (SOLNI) [11] = assay: Herbicidal glasshouse test, pre-emergence, SOLNI
Protocol: as §1

[12] = tested on: Echinochloa crus-galli (ECHCG); assay: Herbicidal glasshouse test, pre-emergence, ECHCG
Protocol: as §1

| Compound | POST Application IPOHE, percentage damage (five point scale) [1] | PRE Application ALOMY, percentage damage (five point scale) [2] | POST Application SOLNI, percentage damage (five point scale) (Solanum nigrum (SOLNI) [3]) | PRE Application IPOHE, percentage damage (five point scale) [4] | POST Application ALOMY, percentage damage (five point scale) [5] | PRE Application SETFA, percentage damage (five point scale) (Setaria faberi (SETFA) [6]) | POST Application ECHCG, percentage damage (five point scale) [7] | POST Application AMARE, percentage damage (five point scale) [8] | POST Application SETFA, percentage damage (five point scale) (Setaria faberi (SETFA) [9]) | PRE Application AMARE, percentage damage (five point scale) [10] | PRE Application SOLNI, percentage damage (five point scale) (Solanum nigrum (SOLNI) [11]) | PRE Application ECHCG, percentage damage (five point scale) [12] |
| --- | --- | --- | --- | --- | --- | --- | --- | --- | --- | --- | --- | --- |
| CC(Cl)c1ccc(-n2c(=O)c(C(=O)Nc3nnnn3C)nn(C)c2=O)cc1 (stereo not drawn) [Compound 1.010] | 5 (5=80-100%) | 5 (5=80-100%) | 5 (5=80-100%) | 5 (5=80-100%) | 5 (5=80-100%) | 5 (5=80-100%) | 5 (5=80-100%) | 5 (5=80-100%) | 5 (5=80-100%) | 4 (4=60-79%) | 5 (5=80-100%) | 5 (5=80-100%) |
| C=CCn1nc(C(=O)Nc2nnnn2C)c(=O)n(-c2ccc(F)cc2)c1=O [Compound 1.011] | 5 (5=80-100%) | 4 (4=60-79%) | 5 (5=80-100%) | 5 (5=80-100%) | 5 (5=80-100%) | 4 (4=60-79%) | 5 (5=80-100%) | 5 (5=80-100%) | 5 (5=80-100%) | 5 (5=80-100%) | 5 (5=80-100%) | 5 (5=80-100%) |
| CC#CCn1nc(C(=O)Nc2nnnn2C)c(=O)n(-c2cccc(F)c2)c1=O [Compound 1.012] | 4 (4=60-79%) | 4 (4=60-79%) | 5 (5=80-100%) | 5 (5=80-100%) | 5 (5=80-100%) | 1 (1=0-19%) | 5 (5=80-100%) | 5 (5=80-100%) | 5 (5=80-100%) | 4 (4=60-79%) | 5 (5=80-100%) | 3 (3=40-59%) |
| CC(C)CCn1nc(C(=O)Nc2nnnn2C)c(=O)n(-c2cccc(F)c2)c1=O [Compound 1.013] | 4 (4=60-79%) | 1 (1=0-19%) | 5 (5=80-100%) | 2 (2=20-39%) | 5 (5=80-100%) | 1 (1=0-19%) | 1 (1=0-19%) | 2 (2=20-39%) | 3 (3=40-59%) | 2 (2=20-39%) | 3 (3=40-59%) | 1 (1=0-19%) |
| C=CCn1nc(C(=O)Nc2nnnn2C)c(=O)n(Cc2cccc(F)c2)c1=O [Compound 1.014] | 5 (5=80-100%) | 3 (3=40-59%) | 5 (5=80-100%) | 5 (5=80-100%) | 2 (2=20-39%) | 1 (1=0-19%) | 4 (4=60-79%) | 5 (5=80-100%) | 5 (5=80-100%) | 5 (5=80-100%) | 5 (5=80-100%) | 5 (5=80-100%) |
| Cn1nnnc1NC(=O)c1nn(C)c(=O)n(-c2ccc(F)cc2)c1=O [Compound 1.015] | 5 (5=80-100%) | 5 (5=80-100%) | 5 (5=80-100%) | 5 (5=80-100%) | 5 (5=80-100%) | 5 (5=80-100%) | 5 (5=80-100%) | 5 (5=80-100%) | 5 (5=80-100%) | 5 (5=80-100%) | 5 (5=80-100%) | 5 (5=80-100%) |
| Cc1ccc(Cl)cc1-n1c(=O)c(C(=O)Nc2nnnn2C)nn(C)c1=O [Compound 1.016] | 5 (5=80-100%) | 5 (5=80-100%) | 5 (5=80-100%) | 5 (5=80-100%) | 5 (5=80-100%) | 5 (5=80-100%) | 5 (5=80-100%) | 5 (5=80-100%) | 5 (5=80-100%) | 5 (5=80-100%) | 5 (5=80-100%) | 5 (5=80-100%) |
| Cn1nnnc1NC(=O)c1nn(C)c(=O)n(-c2cccc(F)c2)c1=O [Compound 1.017] | 5 (5=80-100%) | 5 (5=80-100%) | 5 (5=80-100%) | 5 (5=80-100%) | 5 (5=80-100%) | 5 (5=80-100%) | 5 (5=80-100%) | 5 (5=80-100%) | 5 (5=80-100%) | 5 (5=80-100%) | 5 (5=80-100%) | 5 (5=80-100%) |
| Cc1ccccc1-n1c(=O)c(C(=O)Nc2nnnn2C)nn(C)c1=O [Compound 1.018] | 5 (5=80-100%) | 5 (5=80-100%) | 5 (5=80-100%) | 5 (5=80-100%) | 5 (5=80-100%) | 5 (5=80-100%) | 5 (5=80-100%) | 5 (5=80-100%) | 5 (5=80-100%) | 5 (5=80-100%) | 5 (5=80-100%) | 5 (5=80-100%) |
